Experiment [1] has as its target FPTase (H-Ras substrate) (UniProt P29702+P49355). Briefly: in vitro FTase Inhibition Assay, H-Ras as substrate for farnesylation. Type of experiment: biochemical. The conditions noted are these: H-Ras used as substrate for farnesylation. As to the method:
(§1) The ability of the compounds of this invention to inhibit FPTase was evaluated in the standard pharmacological in vitro test procedures described below.
(§2) Methods—1. […] 2. Solution #1 is added to FPTase reaction in a volume of […]. 3. Standard reaction mix, […], contains 50 mM Tris (7.5), […], 3 mM MgCl2, 20 mM KCl, 5 mM DTT, 0.2% octyl-B-glucoside, 1% DMSO, […], 10 ng FPTase, and various concentrations of FPTase inhibitors. 4. Incubate for 30-90 min at […] 5. Stop reactions with TCA/SDS (6%/2%), hold at 4° C. for 45-60 min. 6. Filter by manifold or 96 well plate, wash filter 3-5× with TCA (6%). 7. Add scintillant to filters, measure ^3H-FPP incorporation into Ras protein.
(§3) (cpm from precipitated Ras with test compounds)−(background cpm)×100=% inhibition.
(§4) (cpm from precipitated Ras without test compounds)−(background cpm)

The target of experiment [2] is FPTase (K-Ras substrate) (UniProt P29702+P49355). As to the kind of experiment: in vitro FTase Inhibition Assay, K-Ras as substrate for farnesylation. The conditions noted are these: K-Ras used as substrate for farnesylation. It is filed as biochemical. As to the method:
as §1, §2, §3, §4

The values that follow come from patent US6784184B2, “5-(arylsulfonyl)-,5-(arylsulfinyl), and 5-(arylsulfanyl)-thiazolidine-2,4-diones useful for inhibition of farnesyl-protein transferase” (Wyeth Holdings Corporation, priority 2001, dated 2004).

Where only a bound is given, the exact number is not on record here.

The IC50 is the concentration that inhibits the measured activity by half. A lower IC50 goes with greater potency. In the case of `COc1ccc(S(=O)(=O)C2(CCCC#Cc3ccc(OC(F)(F)F)cc3)SC(=O)NC2=O)cc1` (stereo not drawn) [Example 154, 5-(4-Methoxybenzenesulfonyl)-5-[5-(4-trifluoromethoxyphenyl)pent-4-ynyl]-thiazolidine-2,4-dione], the half-inhibitory concentration (IC50) in experiment [1] is 70 to 150 nM; in experiment [2] it was 1000 to 2500 nM.

As to `COC(=O)c1ccc(C)c(C#CCCCC2(S(=O)(=O)c3ccc(OC)cc3)SC(=O)NC2=O)c1` (stereo not drawn) [Example 155, 3-{5-[5-(4-Methoxybenzenesulfonyl)-2,4-dioxo-thiazolidin-5-yl]-pent-1-ynyl}-4-methylbenzoic Acid Methyl Ester], the IC50 in experiment [1] lay in the range of 10 to 320 nM; in experiment [2] it was 420 to 440 nM.

Consider `Cc1ccc(S(=O)(=O)C2(CCCC#Cc3ccc(C(C)(C)C)cc3)SC(=O)NC2=O)cc1` (stereo not drawn) [Example 157, 5-[5-(4-tert-Butylphenyl)pent-4-ynyl]-5-(toluene-4-sulfonyl)-thiazolidine-2,4-dione], for which the IC50 in experiment [1] is 270 nM; in experiment [2], 5000 nM.

For `COc1ccc(S(=O)(=O)C2(CCCC#Cc3ccc(C#N)cc3)SC(=O)NC2=O)cc1` (stereo not drawn) [Example 158, 4-{5-[5-(4-Methoxybenzenesulfonyl)-2,4-dioxo-thiazolidin-5-yl]pent-1-ynyl}benzonitrile], the IC50 turned out to be 150 nM in experiment [1] and 3800 nM in experiment [2].

`Cc1ccc(S(=O)(=O)C2(CCCC#Cc3ccc(S(C)(=O)=O)cc3)SC(=O)NC2=O)cc1` (stereo not drawn) [Example 159, 5-[5-(4-Methanesulfonylphenyl)-pent-4-ynyl]-5-(toluene-4-sulfonyl)-thiazolidine-2,4-dione]: the IC50 was 650 nM in experiment [1] and above 10000 nM in experiment [2].

Turning to `O=C1NC(=O)C(CCCC#Cc2ccc(-n3cccc3)cc2)(S(=O)(=O)c2ccc(I)cc2)S1` (stereo not drawn) [Example 162, 5-(4-Iodo-benzenesulfonyl)-5-[5-(4-pyrrol-1-yl-phenyl)pent-4-ynyl]-thiazolidine-2,4-dione], the IC50 in experiment [1] came out at 1210 nM; in experiment [2], 4000 nM.

Regarding `COc1cccc(S(=O)(=O)C2(CCCC#Cc3cccs3)SC(=O)NC2=O)c1` (stereo not drawn) [Example 164, 5-(3-Methoxybenzenesulfonyl)-5-(5-thiophen-2-yl-pent-4-ynyl)-thiazolidine-2,4-dione], the IC50 in experiment [1] is 150 nM; in experiment [2], above 10000 nM.

For `COc1ccc(S(=O)(=O)C2(CCCC#Cc3cccs3)SC(=O)NC2=O)cc1` (stereo not drawn) [Example 166, 5-(4-Methoxybenzenesulfonyl)-5-(5-thiophen-2-yl-pent-4-ynyl)-thiazolidine-2,4-dione], the concentration for half-maximal inhibition (IC50) in experiment [1] stood at 150 nM; in experiment [2], 5300 nM.

`Cc1ccc(S(=O)(=O)C2(CC#Cc3ccc(-c4ccccc4)cc3)SC(=O)NC2=O)cc1` (stereo not drawn) [Example 169, 5-(3-Biphenyl-4-yl-prop-2-ynyl)-5-(toluene-4-sulfonyl)-thiazolidine-2,4-dione]: the IC50 amounted to 100 nM in experiment [1] and 1800 nM in experiment [2].

Consider `Cc1ccc(S(=O)(=O)C2(CC#Cc3ccc(Oc4ccccc4)cc3)SC(=O)NC2=O)cc1` (stereo not drawn) [Example 170, 5-[3-(4-Phenoxyphenyl)prop-2-ynyl]-5-(toluene-4-sulfonyl)-thiazolidine-2,4-dione], for which the IC50 in experiment [1] was 380 nM; in experiment [2] it was 4700 nM.

On to `COc1ccc(S(=O)(=O)C2(CC#Cc3ccc(-c4ccccc4)cc3)SC(=O)NC2=O)cc1` (stereo not drawn) [Example 171, 5-(3-Biphenyl-4-yl-prop-2-ynyl)-5-(4-methoxybenzenesulfonyl)-thiazolidine-2,4-dione], for which the IC50 in experiment [1] was 200 nM; in experiment [2], 3300 nM.

As for `COc1ccc(S(=O)(=O)C2(CCCC#Cc3cc(NC(=O)OCc4ccccc4)ccc3C)SC(=O)NC2=O)cc1` (stereo not drawn) [Example 175, (3-{5-[5-(4-Methoxybenzenesulfonyl)-2,4-dioxothiazolidin-5-yl]pent-1-ynyl}-4-methylphenyl)carbamic Acid Benzyl Ester], the IC50 in experiment [1] fell in the range of 10 to 32 nM; in experiment [2] it was 53 to 520 nM.

In the case of `COc1ccc(S(=O)(=O)C2(CCCC#Cc3cc(NC(=O)OCc4ccc([N+](=O)[O-])cc4)ccc3C)SC(=O)NC2=O)cc1` (stereo not drawn) [Example 176, (3-{5-[5-(4-Methoxybenzenesulfonyl)-2,4-dioxothiazolidin-5-yl]pent-1-ynyl}-4-methylphenyl)carbamic Acid 4-Nitro-Benzyl Ester], the IC50 in experiment [1] lay in the range of 3.2 to 32 nM; in experiment [2], 30 to 320 nM.

Take `COc1ccc(S(=O)(=O)C2(CCCC#Cc3cc(NC(=O)Oc4ccc(Cl)cc4)ccc3C)SC(=O)NC2=O)cc1` (stereo not drawn) [Example 177, (3-{5-[5-(4-Methoxybenzenesulfonyl)-2,4-dioxothiazolidin-5-yl]pent-1-ynyl}-4-methylphenyl)carbamic Acid 4-Chloro-phenyl Ester]: the IC50 was 11 to 32 nM in experiment [1] and 86 to 100 nM in experiment [2].

Regarding `COC(=O)Nc1ccc(C)c(C#CCCCC2(S(=O)(=O)c3ccc(OC)cc3)SC(=O)NC2=O)c1` (stereo not drawn) [Example 178, (3-{5-[5-(4-Methoxybenzenesulfonyl)-2,4-dioxothiazolidin-5-yl]pent-1-ynyl}-4-methylphenyl)carbamic Acid Methyl Ester], the half-maximal inhibitory concentration (IC50) was 17 to 32 nM in experiment [1] and 10 nM in experiment [2].

For `COc1ccc(S(=O)(=O)C2(CCCC#Cc3cc(NC(=O)OC(C)C)ccc3C)SC(=O)NC2=O)cc1` (stereo not drawn) [Example 179, (3-{5-[5-(4-Methoxybenzenesulfonyl)-2,4-dioxothiazolidin-5-yl]pent-1-ynyl}-4-methylphenyl)carbamic Acid Isopropyl Ester], the results for the IC50 in experiment [1] and in experiment [2] were 2 to 32 nM and 5 to 70 nM, respectively.

Consider `COc1ccc(S(=O)(=O)C2(CCCC#Cc3cc(NC(=O)OCC(C)(C)C)ccc3C)SC(=O)NC2=O)cc1` (stereo not drawn) [Example 180, (3-{5-[5-(4-Methoxybenzenesulfonyl)-2,4-dioxothiazolidin-5-yl]pent-1-ynyl}-4-methylphenyl)carbamic Acid Neopentyl Ester], for which the IC50 in experiment [1] was 2 to 32 nM; in experiment [2] it was 7 to 90 nM.

For `CCCCOC(=O)Nc1ccc(C)c(C#CCCCC2(S(=O)(=O)c3ccc(OC)cc3)SC(=O)NC2=O)c1` (stereo not drawn) [Example 181, (3-{5-[5-(4-Methoxybenzenesulfonyl)-2,4-dioxothiazolidin-5-yl]pent-1-ynyl}-4-methylphenyl)carbamic Acid Butyl Ester], the IC50 in experiment [1] was 10 to 32 nM; in experiment [2], 100 to 130 nM.

Turning to `COc1ccc(S(=O)(=O)C2(CCCC#Cc3cc(NC(=O)OCC(C)C)ccc3C)SC(=O)NC2=O)cc1` (stereo not drawn) [Example 182, (3-{5-[5-(4-Methoxybenzenesulfonyl)-2,4-dioxothiazolidin-5-yl]pent-1-ynyl}-4-methylphenyl)carbamic Acid Isobutyl], the results for the IC50 in experiment [1] and in experiment [2] were 5 to 10 nM and 32 to 56 nM, respectively.

Consider `COc1ccc(S(=O)(=O)C2(CCCC#Cc3cc(NC(=O)Nc4ccc(Cl)cc4)ccc3C)SC(=O)NC2=O)cc1` (stereo not drawn) [Example 189, N-(4-Chlorophenyl)-N′-[3-(5-{5-[(4-methoxy-phenyl)sulfonyl]-2,4-dioxo-1,3-thiazolidin-5-yl}-1-pentynyl)-4-methylphenyl]urea], for which the IC50 in experiment [1] turned out to be 100 nM; in experiment [2] it was 1200 nM.

On to `Cc1ccc(S(=O)(=O)C2(CCC/C=C\c3ccc(Cl)cc3)SC(=O)NC2=O)cc1` (stereo not drawn) [Example 217, 5-[(4Z)-5-(4-Chloro-phenyl)pent-4-enyl]-5-(toluene-4-sulfonyl)-thiazolidine-2,4-dione], for which the results for the IC50 in experiment [1] and in experiment [2] were 100 nM and 8500 nM, respectively.
